Experiments:
Type in all cases: in vivo
[1] = test system: Nicotiana benthamiana; experiment: Test Example 4: growth promotion under low-temperature stress by hydroponics of Nicotiana benthamiana, 10 ppm; conditions: 10 ppm in medium, low-temperature stress 7 days at 1.5±1.0° C., green leaf area 3 days later, equation (1)
Procedure: (§1) Test for Evaluating Growth Promotion Under Low-Temperature Stress by Hydroponics of Nicotiana benthamiana
A DMSO solution, which contained one of the compounds 1, 8, 9, 13, 18, 19, 22, 23, 29, 32, 33, 34, 39, 40, 41, 43, 44, 51, 53, 54, 55, 56, 58, 60, 62, 63, 64, 65, 67, 69, 71, 73, 74, 75, 77, 79, 82, 83 and 86 of the present invention at a concentration of 10,000 ppm, was prepared. The DMSO solution of the compound of the present invention was added at a volume ratio of 1/1,000 to the Murashige•Scoog medium of a ½-fold concentration (a medium containing 2.3 g of mixed salts for the Murashige•Scoog medium (manufactured by Wako Pure Chemical Industries, Ltd.), 200 mg of Myo-inositol (manufactured by Sigma-Aldrich Co. LLC.), 2 mg of nicotinic acid (manufactured by Wako Pure Chemical Industries, Ltd.), 2 mg of pyridoxine hydrochloride (manufactured by Wako Pure Chemical Industries, Ltd.), 20 mg of thiamine hydrochloride (manufactured by Wako Pure Chemical Industries, Ltd.), 20 g of sucrose (manufactured by Wako Pure Chemical Industries, Ltd.), and 1 g of MES (manufactured by DOJINDO LABORATORIES) per 1 L of water and having pH adjusted to 5.8), thereby preparing a medium containing the compound of the present invention at a concentration of 10 ppm.
(§2) Seeds of Nicotiana benthamiana were seeded in the 5 μL of the medium and cultured overnight at 22° C. Thereafter, 45 μL of the medium containing the compound of the present invention at a concentration of 10 ppm was added thereto, and the seeds are cultivated for 7 days at 22° C., an illuminance of 4,000 lux, and a day length of 16 hours, and the nursery plants raised from the Nicotiana benthamiana were treated with the compound. Moreover, instead of the above medium, a test plot, which was obtained by performing the same treatment by using a medium prepared by adding DMSO to the Murashige•Scoog medium of ½-fold concentration at a volume ratio of 1/1,000, was used as a control plot not treated with the compound.
(§3) The nursery plants of the Nicotiana benthamiana treated with the compound were subjected to low-temperature treatment by being cultivated for 7 days at 1.5±1.0° C., an illuminance of 2,000 lux, and a day length of 16 hours.
The nursery plants of the Nicotiana benthamiana having undergone the low-temperature stress treatment were cultivated for 3 days at 22° C., an illuminance of 4,000 lux, and a day length of 16 hours. Thereafter, the area of green leaf was quantified by Scanalyzer HTS (manufactured by LemnaTec GmbH). Moreover, the value of the control plot not treated with the compound that had not yet been subjected to the low-temperature stress treatment was measured in the same manner. A value of a relative leaf area was calculated based on the following equation (1), and if the value of a relative leaf area was 5 or greater, the compound was evaluated to have a mitigating effect. As a result of the evaluation, it was confirmed that when the plant was treated with one of the compounds 1, 8, 9, 13, 18, 19, 22, 23, 29, 32, 33, 34, 39, 40, 41, 43, 44, 51, 53, 54, 55, 56, 58, 60, 62, 63, 64, 65, 67, 69, 71, 73, 74, 75, 77, 79, 82, 83 and 86 of the present invention at 10 ppm, the value of a relative leaf area was 5 or greater, compared to the area of green leaf of the control plot not treated with compound. Accordingly, it was confirmed that the treatment using the compound of the present invention brings about a growth promotion effect.
(§4) Relative leaf area=100*(a green area of a plot treated with the compound of the present invention−a green area of a control plot not treated with the compound of the present invention)/(a green area of a control plot not treated with the compound of the present invention that has not yet been subjected to low-temperature stress treatment−a green area of a control plot not treated with the compound of the present invention) Equation (1): […]

[2] = test system: Rice (variety: Nipponbare); experiment: Test Example 1: promotion of root growth by hydroponics of rice, 10 ppm; conditions: Oryza sativa, hydroponic solution containing the test compound at 10 ppm, average of 4 or 5 individuals, read-out: Relative value of length of seminal root (%-untreated control plot)
Procedure: (§5) Test for Evaluating Promotion of Root Growth by Hydroponics of Rice
(§6) Rice (variety: Nipponbare)
Rice seeds were soaked in a 1% aqueous sodium hypochlorite solution for 10 minutes, then soaked in a 70% ethanol solution for surface sterilization, and then washed with distilled water. The sterilized seeds were soaked in a hydroponic solution containing the test compound described above at 10 ppm and incubated in a dark place for 3 days at 28° C. to perform treatment for hastening germination.
(§7) Thereafter, 30 ml of hydroponic solution containing the test compound at 10 ppm was dispensed in a plastic tube (diameter of 20 mm×height of 113 mm) of which the side was covered with cardboard to block light. A float prepared using a styrene board and vinyl mesh was floated, and the rice seeds that had undergone the treatment for hastening germination were placed on the float on the surface of the hydroponic solution. The seeds were cultivated for 3 days at 26° C., an illuminance of 4,000 lux of the top surface of the tube, a humidity of 50%, and a day length of 16 hours.
The nursery plants of rice obtained after culturing were measured in terms of the length of seminal root by using WinRHIZO system (manufactured by Regent Instruments Inc). For each test plot, an average of the measured values of the seminal root of 4 or 5 individuals was determined.

[3] = test system: Nicotiana benthamiana; experiment: Test Example 5: growth promotion under low-temperature stress by hydroponics of Nicotiana benthamiana, 1 ppm; conditions: 1 ppm in medium, low-temperature stress 7 days at 1.5±1.0° C., green leaf area 3 days later, equation (1)
Procedure: as §1
A DMSO solution, which contained one of the compounds 2, 4, 5, 6, 11, 12, 17, 20, 21, 28, 30, 34, 36, 37, 51, 52, 53, 55, 56, 58, 59, 60, 64, 65, 66, 68, 69, 70, 74, 77, 82, 83, 84, 86 and 87 of the present invention at a concentration of 1,000 ppm, was prepared. The DMSO solution of the compound of the present invention was added at a volume ratio of 1/1,000 to the Murashige•Scoog medium of a ½-fold concentration (a medium containing 2.3 g of mixed salts for the Murashige•Scoog medium (manufactured by Wako Pure Chemical Industries, Ltd.), 200 mg of Myo-inositol (manufactured by Sigma-Aldrich Co. LLC.), 2 mg of nicotinic acid (manufactured by Wako Pure Chemical Industries, Ltd.), 2 mg of pyridoxine hydrochloride (manufactured by Wako Pure Chemical Industries, Ltd.), 20 mg of thiamine hydrochloride (manufactured by Wako Pure Chemical Industries, Ltd.), 20 g of sucrose (manufactured by Wako Pure Chemical Industries, Ltd.), and 1 g of MES (manufactured by DOJINDO LABORATORIES) per 1 L of water and having pH adjusted to 5.8), thereby preparing a medium containing the compound of the present invention at a concentration of 1 ppm.
as §2, with “1” for “10”, “cultured” for “cultivated”
as §3
The nursery plants of the Nicotiana benthamiana having undergone the low-temperature stress treatment were cultured for 3 days at 22° C., an illuminance of 4,000 lux, and a day length of 16 hours. Thereafter, the area of green leaf was quantified by Scanalyzer HTS (manufactured by LemnaTec GmbH). Moreover, the value of the control plot not treated with the compound that had not yet been subjected to the low-temperature stress treatment was measured in the same manner. A value of a relative leaf area was calculated based on the following equation (1), and if the value of a relative leaf area was 5 or greater, the compound was evaluated to have a mitigating effect. As a result of the evaluation, it was confirmed that when the plant was treated with one of the compounds 2, 4, 5, 6, 11, 12, 17, 20, 21, 28, 30, 34, 36, 37, 51, 52, 53, 55, 56, 58, 59, 60, 64, 65, 66, 68, 69, 70, 74, 77, 82, 83, 84, 86 and 87 of the present invention at 1 ppm, the value of a relative leaf area was 5 or greater, compared to the area of green leaf of the control plot not treated with compound. Accordingly, it was confirmed that the treatment using the compound of the present invention brings about a growth promotion effect.
as §4

[4] = test system: Rice (variety: Nipponbare); experiment: Test Example 2: promotion of root growth by hydroponics of rice, 1 ppm; conditions: Oryza sativa, hydroponic solution containing the test compound at 1 ppm, average of 4 or 5 individuals, read-out: Relative value of length of seminal root (%-untreated control plot)
Procedure: as §5, §6
A DMSO solution, which contained one of the compounds 1, 3, 11, 12, 14, 15, 17, 21, 28, 30, 33, 34, 35, 36, 37, 38, 40, 41, 43, 44, 45, 46, 47, 49, 50, 51, 52, 53, 54, 55, 56, 61, 62, 63, 65, 67, 68, 69, 70, 73, 74, 75, 76, 77, 80, 82, 83, 85 and 86 of the present invention at a concentration of 10,000 ppm, was added to Hoagland hydroponic solution (Hoagland and Arnon, California Agricultural Experiment Station 1950 Circular 347 pp. 34) of ¼-fold concentration at a volume ratio of 1/10,000. In this manner, hydroponic solutions containing one of the compounds 1, 3, 11, 12, 14, 15, 17, 21, 28, 30, 33, 34, 35, 36, 37, 38, 40, 41, 43, 44, 45, 46, 47, 49, 50, 51, 52, 53, 54, 55, 56, 61, 62, 63, 65, 67, 68, 69, 70, 73, 74, 75, 76, 77, 80, 82, 83, 85 and 86 of the present invention at 1 ppm were prepared respectively. As an untreated control plot, a hydroponic solution obtained by adding DMSO to Hoagland hydroponic solution of ¼-fold concentration at a volume ratio of 1/10,000 was used. Rice seeds were soaked in a 1% aqueous sodium hypochlorite solution for 10 minutes, then soaked in a 70% ethanol solution for surface sterilization, and then washed with distilled water. The sterilized seeds were soaked in a hydroponic solution containing the test compound described above at 1 ppm and incubated in a dark place for 3 days at 28° C. to perform treatment for hastening germination.
as §7, with “1” for “10”
The nursery plants of rice obtained after cultivation were measured in terms of the length of seminal root by using WinRHIZO system (manufactured by Regent Instruments Inc). For each test plot, an average of the measured values of the seminal root of 4 or 5 individuals was determined.

| Compound | relative leaf area at 10 ppm [1] [%] | change in vivo at 10 ppm [2] [%] | relative leaf area (% of untreated control) at 1 ppm [3] [%] | change in vivo at 1 ppm [4] [%] |
| --- | --- | --- | --- | --- |
| COC(=O)c1oc2ccccc2c1NS(C)(=O)=O [Compound 60] | ≥ 5 | > 5 | ≥ 5 | – |
| COC(=O)c1oc2ccccc2c1N(C)C [Compound 58] | ≥ 5 | – | ≥ 5 | – |
| COC(=O)c1nc2cc(C(F)(F)F)ccc2[nH]1 [Compound 21, methyl 5-(trifluoromethyl)benzimidazole-2-carboxylate] | – | – | ≥ 5 | > 5 |
